Experimental data reported in PubChem BioAssay (NCI).
Values joined by “and” are separate entries in the source; they are usually repeats but may differ in a detail not shown here. Identical values can stand only once.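 Results reflect a 48-hour exposure of cells in 96-well plates to compound at five concentrations. GI50: concentration for 50% inhibition of growth. TGI denotes the concentration required for complete inhibition of growth.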

Tests used:
Experiment in all cases: DTP human tumour cell line panel, 48 h; in the data active = GI50 below about 0.43 µM; inactive = the rest
[1] = test system: 786-0 renal
[2] = test system: A498 renal
[3] = test system: A549 NSCLC
[4] = test system: ACHN renal
[5] = test system: BT-549 breast
[6] = test system: CAKI-1 renal
[7] = test system: CCRF-CEM leukemia
[8] = test system: COLO 205 colon
[9] = test system: DU-145 prostate
[10] = test system: EKVX NSCLC
[11] = test system: HCC-2998 colon
[12] = test system: HCT-116 colon
[13] = test system: HCT-15 colon
[14] = test system: HL-60(TB) leukemia
[15] = test system: HOP-62 NSCLC
[16] = test system: HOP-92 NSCLC
[17] = test system: HS 578T breast
[18] = test system: HT29 colon
[19] = test system: IGROV1 ovarian
[20] = test system: K-562 leukemia
[21] = test system: KM12 colon
[22] = test system: LOX IMVI melanoma
[23] = test system: M14 melanoma
[24] = test system: MALME-3M melanoma
[25] = test system: MCF7 breast
[26] = test system: MDA-MB-231 breast
[27] = test system: MDA-MB-435
[28] = test system: MOLT-4 leukemia
[29] = test system: NCI-H226 lung

CCC[C@H](N[C@H]1CCc2cc(F)cc(F)c2C1)C(=O)Nc1cn(C(C)(C)CNCC(C)(C)C)cn1
28.5 µM and 29.5 µM: TGI [24]
> 48.1 µM and 87.8 µM: TGI [2]
43.3 µM and > 100 µM: TGI [14]
> 47.6 µM and 42.9 µM: TGI [6]
49.8 µM and > 100 µM: TGI [1]
40.1 µM and 27.2 µM: TGI [16]
72.2 µM and 86.2 µM: TGI [5]
34.3 µM and 35.9 µM: TGI [22]
23.3 µM and 28.6 µM: TGI [12]
41.2 µM and 46.6 µM: TGI [23]
inactive: GI50 [1] 14.2 µM and 32.5 µM | GI50 [2] 3.85 µM and 19.2 µM | GI50 [3] 23.1 µM and 21.5 µM | GI50 [4] 26.3 µM and 23.2 µM | GI50 [5] 14.9 µM and 21 µM | GI50 [6] 7.69 µM and 4.75 µM | GI50 [7] 24.5 µM and 20.7 µM | GI50 [8] 14 µM and 14.4 µM | GI50 [9] 34.8 µM and 35.9 µM | GI50 [10] 24.2 µM and 21.3 µM | GI50 [11] 22.3 µM and 24.9 µM | GI50 [12] 7.27 µM and 10.9 µM | GI50 [13] 20.1 µM and 16.3 µM | GI50 [14] 13.9 µM and 22.4 µM | GI50 [15] 33.3 µM and 53.3 µM | GI50 [16] 5.6 µM and 2.52 µM | GI50 [17] 16.3 µM and 13.1 µM | GI50 [18] 10.4 µM and 11.9 µM | GI50 [19] 42.6 µM and 31.5 µM | GI50 [20] 5.6 µM and 12.1 µM | GI50 [21] 26.9 µM and 27 µM | GI50 [22] 15.5 µM and 16.1 µM | GI50 [23] 13.8 µM and 14.8 µM | GI50 [24] 11 µM and 12.9 µM | GI50 [25] 16.3 µM and 11.7 µM | GI50 [26] 15.3 µM and 12.9 µM | GI50 [27] 21.3 µM and 21.5 µM | GI50 [28] 6.93 µM and 7.84 µM | GI50 [29] 26.5 µM and 14.1 µM
> 100 µM and 93.5 µM: TGI [17]
> 64.4 µM and 83.7 µM: TGI [25]
29.5 µM and 28.8 µM: TGI [18]
45.3 µM and 41.2 µM: TGI [26]
28.6 µM and 29.1 µM: TGI [8]
> 100 µM: TGI [3] | TGI [4] | TGI [7] | TGI [9] | TGI [10] | TGI [11] | TGI [13] | TGI [15] | TGI [19] | TGI [20] | TGI [21] | TGI [27] | TGI [28]
